Assay [1] has as its system Schistosoma mansoni. The assay can be described thus: In vitro activity screen on S. mansoni schistosomula at 10 uM. Compound-induced effects were assessed by quantifying larva motility and phenotype using Roboworm. Type of assay: functional, organism-based. Conditions: Puerto Rican. Set-up: test concentration 10 uM, temperature 37 degree C, time incubation 72 h.
For assay [2], the system named is Schistosoma mansoni. Nature of the assay: Ex vivo activity screen on S. mansoni adult worms at 20 uM. Parasite motility after compound treatment was assessed at 72 h using the WHO-TDR scoring metric. Type of assay: functional, organism-based. Further details: test concentration 20 uM, temperature 37 degree C. To be noted: Puerto Rican.

Each structure is given as a SMILES string. The source made the active and inactive calls.

This is an account of results in ChEMBL document CHEMBL5441142, “Probing the Merck KGaA Open Global health library for novel starting points for anti-schistosomal drug discovery” (2024).

One may read the EC50 as the concentration that produces a half-maximal response.

With `CCOc1cc(CCNC(=O)C[C@H]2S[C@@H](c3ccc(C#Cc4ccccc4)cc3)N(c3cccc(C(N)=O)c3)C2=O)ccc1OC`, the In vitro activity entry in the assay on Schistosoma mansoni [1] was “Active”. Moreover, the Ex-vivo screening entry with Schistosoma mansoni [2] is “inactive”.

Regarding `CN(C)C(=O)/C=C/C(=O)c1ccc(SCc2ccc(Cl)cc2Cl)cc1`, in the assay with Schistosoma mansoni [1], the In vitro activity entry is “Active”. Besides, in the assay with Schistosoma mansoni [2], the Ex-vivo screening result is “inactive”. `Clc1cccc(OCc2ncc3nccnc3n2)c1Cl`: in the assay on Schistosoma mansoni [1], the In vitro activity entry is “Active”. For the same compound, the Ex-vivo screening entry in the assay on Schistosoma mansoni [2] is “inactive”. In the same order, the values of `COc1ccc(OC)c(CCNC(=O)c2ccc3nc(-c4cc(OCCCO)ccc4OC)cn3c2)c1` are “Active” and “inactive”. `COc1ccc(OCCCO)cc1-c1cn2cc(C(=O)NCCc3c(OC)cccc3OC)sc2n1`: the In vitro activity entry in the assay on Schistosoma mansoni [1] was “Active”. Moreover, the Ex-vivo screening result in the assay on Schistosoma mansoni [2] was “inactive”. In the same order, the values of `COc1cc(OC)c(CCNC(=O)c2cn3cc(-c4cc(OC)ccc4OC)nc3s2)c(OC)c1` are “Active” and “inactive”. Regarding `COc1ccc(CNc2nc3c(ccc4[nH]c(=O)c(C#N)cc43)s2)cc1`, in the assay on Schistosoma mansoni [1], the concentration giving a half-maximal response (EC50) was 4.35 µM (active). The Ex-vivo screening result in the assay with Schistosoma mansoni [2] is “Active”.

For the compound `COc1cc(Nc2cn(Cc3ccc(Oc4ccccc4)cc3)nn2)ccc1-n1cnc(C)c1`, in the assay on Schistosoma mansoni [1], the In vitro activity entry is “Active”. Moreover, the Ex-vivo screening result with Schistosoma mansoni [2] is “inactive”. Take `COc1ccc(OCCCO)cc1-c1cn2cc(-c3nnc(NCCCCc4ccccc4)o3)ccc2n1`: in the assay with Schistosoma mansoni [1], the In vitro activity entry was “Active”. Moreover, the Ex-vivo screening entry in the assay with Schistosoma mansoni [2] is “inactive”.

For the compound `COc1cc(OC)c(CCNC(=O)c2cn3cc(-c4cc(OCC#N)ccc4OC)nc3s2)c(OC)c1`, the In vitro activity entry with Schistosoma mansoni [1] is “Active”. Besides, in the assay with Schistosoma mansoni [2], the Ex-vivo screening result is “inactive”. Take `CNS(=O)(=O)c1ccccc1Nc1nc(Nc2cc(OC)c(OC)cc2C)ncc1Br`: the In vitro activity entry in the assay with Schistosoma mansoni [1] is “Active”. Moreover, the Ex-vivo screening entry with Schistosoma mansoni [2] is “inactive”. Taken in the same sequence, the figures for `COCc1cc(-c2nc(-c3ccc(CNCC(=O)O)c(F)c3)no2)ccc1-c1ccccc1F` were “Active” and “inactive”. In the same order, the values of `O=C(C1CCCCC1)N1CC(=O)N2CCc3ccccc3[C@@H]2C1` are “Active” and “inactive”.

In the case of `CNS(=O)(=O)c1ccccc1Nc1nc(Nc2ccc(N3CCOCC3)cc2OC)ncc1Br`, the In vitro activity entry in the assay on Schistosoma mansoni [1] is “Active”. Further, the Ex-vivo screening entry in the assay on Schistosoma mansoni [2] was “inactive”. With `COCCCOc1ccc(OC)c(-c2cn3cc(C(=O)NCCc4c(OC)cc(OC)cc4OC)ccc3n2)c1`, the In vitro activity entry in the assay with Schistosoma mansoni [1] is “Active”. In the assay with Schistosoma mansoni [2], the Ex-vivo screening entry is “inactive”.

As to `Cc1cn(-c2ccc(Nc3ncn(Cc4ccc(Cl)cc4)n3)cc2C#N)cn1`, the In vitro activity result in the assay on Schistosoma mansoni [1] is “Active”. In addition, in the assay on Schistosoma mansoni [2], the Ex-vivo screening result is “inactive”. On to `COc1cccc(CNc2nnc(-c3c[nH]c4ncccc34)o2)c1`, for which the In vitro activity result in the assay with Schistosoma mansoni [1] is “Active”. Besides, the Ex-vivo screening entry in the assay with Schistosoma mansoni [2] is “inactive”. Regarding `CCCc1nn(C)c2c(=O)[nH]c(-c3cc(S(=O)(=O)Oc4nc(C)ccc4C#N)ccc3OCC)nc12`, the In vitro activity result in the assay on Schistosoma mansoni [1] is “inactive”. Take `COc1cc(OC)c(CCNC(=O)c2cn3cc(-c4cc(OCCO)ccc4OC)nc3s2)c(OC)c1`: the In vitro activity result with Schistosoma mansoni [1] was “Active”. Also, the Ex-vivo screening entry with Schistosoma mansoni [2] was “inactive”. Take `CC1=C(C(=O)N2CCc3ncc(C(F)(F)F)cc3C2)C2(CCN([C@H]3CC[C@@H](O)CC3)CC2)OC1=O`: in the assay on Schistosoma mansoni [1], the In vitro activity entry was “inactive”. On the same count and under the same terms, the same measure for `Cc1ccccc1-c1ccc(-c2nc(-c3ccc(CN(C)CCC(=O)O)c(F)c3)no2)cc1OCC1CC1`: “inactive”; for `COc1ccc(OCC(=O)O)cc1-c1cn2cc(C(=O)NCCc3c(OC)cc(Cl)cc3OC)sc2n1`: “inactive”. For `CN(CCCCc1ccc(F)cc1)CCC(=O)c1ccc2[nH]c(=O)oc2c1`, the In vitro activity result with Schistosoma mansoni [1] was “inactive”. On the same count and under the same terms, with `Cn1c2ccccc2c2c(NCc3ccc4c(c3)OCO4)nc(-c3ccc(C(=O)O)cc3)nc21` the entry was “inactive”. On to `COc1cc(C(=O)Nc2cn(Cc3ccc4ccccc4c3)nn2)ccc1-n1cnc(C)c1`, for which the In vitro activity result with Schistosoma mansoni [1] is “inactive”. The same measure, in the same setting: the same measure for `CC1=C(C(=O)N2CCc3ncc(C(F)(F)F)cc3C2)C2(CCN(C3CCCC3)CC2)OC1=O`: “inactive”. For the compound `CC1=C(C(=O)N2CCc3ccc(C(F)(F)F)cc3C2)C2(CCN(C)CC2)OC1=O`, the In vitro activity entry with Schistosoma mansoni [1] was “inactive”. Same read-out and setting: with `O=S(=O)(Nc1ccc2nsnc2c1)c1ccccc1-c1ccccc1` the entry was “inactive”. With `CCC(C)Oc1ccc(-c2nc(-c3ccc([C@@H](C)NCC(=O)O)cc3)no2)cc1COC` (stereo not given in full), in the assay on Schistosoma mansoni [1], the In vitro activity result is “inactive”.

As for `CCCCc1nc2ccn(Cc3ccccc3C(=O)O)c(=O)c2n1Cc1ccc(-c2ccccc2-c2nn[nH]n2)cc1`, in the assay on Schistosoma mansoni [1], the In vitro activity result was “inactive”.

As to `COc1cc(SCCO)ccc1-c1nc2ccncc2[nH]1`, the In vitro activity entry with Schistosoma mansoni [1] is “inactive”.

With `O=c1nc(Nc2cccc(Oc3ccncc3)c2)[nH]c2ccccc12`, the In vitro activity entry with Schistosoma mansoni [1] is “inactive”. Still for that read-out and setting: with `CCOc1cc(CCC(=O)NC[C@H]2S[C@@H](c3ccc(C#Cc4ccccc4)cc3)N(c3cccc(C(N)=O)c3)C2=O)ccc1OC` the entry was “inactive”. For the compound `CC1=C(C(=O)N2CCc3ccc(C(F)(F)F)cc3C2)C2(CCN(C3CCC(O)CC3)CC2)OC1=O` (stereo not given), the In vitro activity result with Schistosoma mansoni [1] was “inactive”. On the same count and under the same terms, the same measure for `CCOC(=O)CC1=NN(c2ccc(C(=O)O)cc2)C(=O)/C1=C\Nc1ccccc1CC`: “inactive”. The same measure, in the same setting: with `CC1=C(C(=O)N2CCc3ncc(C(F)(F)F)cc3C2)C2(CCN(C3CCc4ccccc43)CC2)OC1=O` (stereo not given) the entry was “inactive”; with `O=C(c1cc2c(s1)CC(C(=O)O)C2)c1ccccc1Cl` (stereo not given), “inactive”.
